The results in this text go back to patent publication US20110053900A1, “PROGESTERONE ANTAGONISTS SUCH AS CDB-4124 IN THE TREATMENT OF BREAST CANCER” (Repros Therapeutics inc, priority 2008, published 2011).

One experiment deals with estrogen receptor (ER). Nature of the experiment: Expression of estrogen receptor in tumors (IHC). Type of experiment: in vivo, rat. Particulars: 10 mg/kg. Here is the method:
The tumors that were evaluated for proliferation and apoptosis were also assessed for expression of estrogen and progesterone receptors by immunohistochemistry (IHC). The percentage of cells positive for ER and PR was determined and analyzed. Tumors were grouped into four different categories: tumors with 0% of cells expressing ER, tumors with 10% of cells expressing ER, tumors with 15 to 30% of cells expressing ER and tumors with 30-50% of cells expressing ER. In general, untreated tumors consistently expressed ER. Out of 12 tumors analyzed, all 12 expressed ER. Four out of these 12 tumors contained 30-50% ER-positive cells.

In a further experiment the test system is rabbit uterus. Nature of the experiment: Anti-McGinty and anti-Clauberg assays. Conditions: average of anti-McGinty and anti-Clauberg results relative to CDB-2914 = 1.00. Type of experiment: in vivo. The essentials:
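Immature female rabbits were primed with 5 μg estradiol s.c. daily for 6 days. Anti-McGinty: compound given intraluminally into a ligated uterine segment, with progesterone 267 μg/day s.c. for 3 days. Anti-Clauberg: compound oral or s.c. with progesterone 160 μg/day for 5 days. Histological endometrial proliferation inhibition, averaged over both assays, is given relative to CDB-2914.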

With `CC#C[C@]1(O)CC[C@H]2[C@@H]3CCC4=CC(=O)CCC4=C3[C@@H](c3ccc(N(C)C)cc3)C[C@@]21C` [RU 486, mifepristone, reference compound], the “number of cells expressing ER in tumors (in words)” value with estrogen receptor (ER) is on record as “lowered the number of cells that express ERs”.

Take `COCC(=O)[C@@]1(OC(C)=O)CC[C@H]2[C@@H]3CCC4=CC(=O)CCC4=C3[C@@H](c3ccc(N(C)C)cc3)C[C@@]21C` [CDB-4124, 21-methoxy-17α-acetoxy-11β-(4 N,N-dimethylaminophenyl)-19-norpregna-4,9-diene-3,20-dione]: the “rabbit Biol. Act.” value in the experiment on rabbit uterus was found to be 3.60.
